Where a name gives a salt, the structure may show the parent alone.
Legend:
human H4 receptor = molecular target: T1, human H4 receptor (Homo sapiens, UniProt Q9H3N8); test: H4 Antagonist Functional cAMP Gi Assay; format: cell-based; settings: H4 antagonist activity; for Kb: read-out: Human H4 CAMP fpKb (converted)
T1 construct: expressed in transfected cells; host or cells: HEKf cells transduced with baculovirus
Protocol: H4 Antagonist Functional cAMP Gi Assay
HEKf cells were infected overnight using baculovirus expressing the human H4 receptor, then centrifuged at 1,200 rpm for 5 min, frozen in cell freezing medium (Sigma) and stored at −150° C. On the day of assay, the cells were thawed and resuspended in HBSS with 500 nM IBMX to achieve a density of 1,500 cells/well. H4 ligands were prepared in DMSO and stamped by LabCyte ECHO acoustic dispensing at 25 nL in low volume plates. 10 μL/well cells were plated in the presence of 1 μM forskolin, subjected to centrifugation at 1,200 rpm for 1 min and incubated for 30 min prior to addition of Cisbio cAMP detection reagents to a total volume 20 μL/well. For the antagonist assay, cells were pre-incubated with H4 antagonist ligands for 30 min prior to addition of EC80 concentration of histamine and a further 30 min incubation. Following detection reagent addition and shaking at room temperature for 60 min, cAMP accumulation was measured using HTRF on a PheraStar plate reader. EC50 values were generated using a 4-parameter logistical fit equation to quantify agonist potencies. Functional antagonist affinity values were generated using the Cheng-Prusoff equation to calculate a pKb value using the antagonist assay data.

hERG = hERG (Homo sapiens, UniProt Q12809); test: hERG Assay (QPatch automated patch clamp; single-concentration assay at 30 μM and pIC50 assay); settings: for inhibition at 30 µM: human, CHO cells stably expressing hERG
hERG, sequence (Q12809 whole entry): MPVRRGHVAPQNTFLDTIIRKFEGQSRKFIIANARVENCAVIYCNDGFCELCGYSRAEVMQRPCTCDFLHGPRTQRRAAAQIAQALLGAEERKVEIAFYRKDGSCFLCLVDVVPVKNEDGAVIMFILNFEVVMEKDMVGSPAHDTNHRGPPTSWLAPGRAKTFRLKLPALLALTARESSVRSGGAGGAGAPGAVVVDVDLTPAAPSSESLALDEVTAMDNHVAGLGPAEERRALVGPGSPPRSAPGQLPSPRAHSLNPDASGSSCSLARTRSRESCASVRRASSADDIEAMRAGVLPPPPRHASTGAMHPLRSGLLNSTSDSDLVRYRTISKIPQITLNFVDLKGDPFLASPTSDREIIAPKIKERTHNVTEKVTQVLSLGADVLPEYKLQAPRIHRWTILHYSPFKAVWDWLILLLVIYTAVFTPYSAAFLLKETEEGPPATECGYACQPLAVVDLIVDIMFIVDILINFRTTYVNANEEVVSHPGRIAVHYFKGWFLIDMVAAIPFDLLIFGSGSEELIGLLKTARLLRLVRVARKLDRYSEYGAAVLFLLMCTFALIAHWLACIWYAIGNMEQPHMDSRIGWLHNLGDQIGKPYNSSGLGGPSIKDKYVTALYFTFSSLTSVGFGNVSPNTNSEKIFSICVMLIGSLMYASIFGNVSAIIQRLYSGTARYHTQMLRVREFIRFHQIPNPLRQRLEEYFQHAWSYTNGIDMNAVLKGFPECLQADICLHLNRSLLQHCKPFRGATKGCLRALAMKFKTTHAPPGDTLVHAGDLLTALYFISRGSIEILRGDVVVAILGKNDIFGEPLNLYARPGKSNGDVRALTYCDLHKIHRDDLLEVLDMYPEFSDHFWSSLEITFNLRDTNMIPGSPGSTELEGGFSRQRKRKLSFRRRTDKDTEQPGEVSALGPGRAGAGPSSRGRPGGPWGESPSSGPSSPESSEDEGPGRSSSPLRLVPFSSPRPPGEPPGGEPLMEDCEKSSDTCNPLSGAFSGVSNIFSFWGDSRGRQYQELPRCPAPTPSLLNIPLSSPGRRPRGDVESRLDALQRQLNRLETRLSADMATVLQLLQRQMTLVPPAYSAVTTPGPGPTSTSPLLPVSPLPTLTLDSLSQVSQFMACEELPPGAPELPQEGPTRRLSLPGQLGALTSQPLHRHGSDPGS

| Kb (human H4 receptor) | Structure (SMILES) | inhibition at 30 µM (hERG) | other results |
| --- | --- | --- | --- |
| 6.31 nM | CN[C@@H]1CCN(c2cc(-c3[nH]nc4c3CCC4)nc(N)n2)C1 [7.4] | 16% |  |
| 50.1 nM | CN[C@@H]1CCN(c2cc(-c3ccn[nH]3)nc(N)n2)C1 [Example 1-1, (R)-4-(3-(methylamino)pyrrolidin-1-yl)-6-(1H-pyrazol-5-yl)pyrimidin-2-amine] |  | IC50 (hERG): ≥ 100000 nM |
| 794 nM | CN[C@@H]1CCN(c2cc(-c3ccnn3C)nc(N)n2)C1 [Example 1-2, (R)-4-(1-methyl-1H-pyrazol-5-yl)-6-(3-(methylamino)pyrrolidin-1-yl)pyrimidin-2-amine dihydrochloride] |  |  |
| 39.8 nM | CN[C@@H]1CCN(c2cc(-c3ccn(C)n3)nc(N)n2)C1 [Example 2-1, (R)-4-(1-methyl-1H-pyrazol-3-yl)-6-(3-(methylamino)pyrrolidin-1-yl)pyrimidin-2-amine] |  | IC50 (hERG): ≥ 100000 nM |
| 50.1 nM | CN[C@@H]1CCN(c2cc(-c3ccn(C(F)F)n3)nc(N)n2)C1 [Example 2-2, (R)-4-(1-(difluoromethyl)-1H-pyrazol-3-yl)-6-(3-(methylamino)pyrrolidin-1-yl)pyrimidin-2-amine dihydrochloride] | 99% |  |
| 7.94 nM | CN[C@@H]1CCN(c2cc(-c3cc(C)n[nH]3)nc(N)n2)C1 [Example 3-1, (R)-4-(3-methyl-1H-pyrazol-5-yl)-6-(3-(methylamino)pyrrolidin-1-yl)pyrimidin-2-amine] | < 1% |  |
| 100 nM | CN[C@@H]1CCN(c2cc(-c3cc(C4CC4)n[nH]3)nc(N)n2)C1 [Example 3-2, dihydrochloride] | 39% |  |
| 50.1 nM | CN[C@@H]1CCN(c2cc(-c3cc(C(F)F)n[nH]3)nc(N)n2)C1 [Example 3-3, (R)-4-(3-(difluoromethyl)-1H-pyrazol-5-yl)-6-(3-(methylamino)pyrrolidin-1-yl)pyrimidin-2-amine] |  |  |
| 63.1 nM | CN[C@@H]1CCN(c2cc(-c3cc(C(F)(F)F)n[nH]3)nc(N)n2)C1 [Example 3-4, (R)-4-(3-(methylamino)pyrrolidin-1-yl)-6-(3-(trifluoromethyl)-1H-pyrazol-5-yl)pyrimidin-2-amine ditrifluoroacetate salt] | 45% |  |
| 100 nM | Nc1nc(-c2cc(C(F)(F)F)n[nH]2)cc(N2CC[C@@H](N)C2)n1 [Example 3-5] | 19% |  |
| 10 nM | CCc1cn[nH]c1-c1cc(N2CC[C@@H](NC)C2)nc(N)n1 [Example 4-2, (R)-4-(4-ethyl-1H-pyrazol-5-yl)-6-(3-(methylamino)pyrrolidin-1-yl)pyrimidin-2-amine] | 25% |  |
| 79.4 nM | CN[C@@H]1CCN(c2cc(-c3[nH]ncc3OC)nc(N)n2)C1 [Example 4-4, (R)-4-(4-methoxy-1H-pyrazol-5-yl)-6-(3-(methylamino)pyrrolidin-1-yl)pyrimidin-2-amine] | 14% |  |
| 398 nM | CN[C@@H]1CCN(c2cc(-c3cc(C)n(C)n3)nc(N)n2)C1 [Example 5-1, diformate] |  |  |
| 398 nM | CN[C@@H]1CCN(c2cc(-c3cc(C)n(C(F)F)n3)nc(N)n2)C1 [Example 5-2] | 71% |  |
| 20 nM | CN[C@@H]1CCN(c2cc(-c3nn(C)cc3C)nc(N)n2)C1 [Example 6-1] | 12% |  |
| 39.8 nM | CN[C@@H]1CCN(c2cc(-c3nn(C(F)F)cc3C)nc(N)n2)C1 [Example 6-2] | 94% |  |
| 0.251 nM | CN[C@@H]1CCN(c2cc(-c3[nH]nc(C)c3Cl)nc(N)n2)C1 [Example 7-2] | 39% |  |
| 398 nM | Cc1n[nH]c(-c2cc(N3CC[C@@H](N)C3)nc(N)n2)c1C [Example 7-6] |  |  |
| 2 nM | Cc1n[nH]c(-c2cc(N3CC[C@@H](N)C3)nc(N)n2)c1Cl [Example 7-7] | 30% |  |
| 126 nM | CCc1n[nH]c(-c2cc(N3CC[C@@H](N)C3)nc(N)n2)c1C [Example 7-8] |  |  |
| 100 nM | CN[C@@H]1CCN(c2cc(-c3cn[nH]c3)nc(N)n2)C1 [Example 8-1] |  | IC50 (hERG): ≥ 100000 nM |
| 39.8 nM | CCn1cc(-c2cc(N3CC[C@@H](NC)C3)nc(N)n2)cn1 [Example 8-3, dihydrochloride] | 12% |  |
| 251 nM | CN[C@@H]1CCN(c2cc(-c3cnn(C4CCC4)c3)nc(N)n2)C1 [Example 8-5] | 77% |  |
| 20 nM | CN[C@@H]1CCN(c2cc(-c3cnn(C(F)F)c3)nc(N)n2)C1 [Example 8-6] |  | IC50 (hERG): 6310 nM |
| 398 nM | CN[C@@H]1CCN(c2cc(-c3cnn(CC(F)(F)F)c3)nc(N)n2)C1 [Example 8-8, dihydrochloride] | 44% |  |
| 631 nM | CN[C@@H]1CCN(c2cc(-c3cnn(CCO)c3)nc(N)n2)C1 [Example 8-9] |  |  |
| 501 nM | CN[C@@H]1CCN(c2cc(-c3cnn(C4COC4)c3)nc(N)n2)C1 [Example 8-11] |  |  |

| Kb (human H4 receptor) | Structure (SMILES) | inhibition at 30 µM (hERG) | other results |
| --- | --- | --- | --- |
| 794 nM | CN[C@@H]1CCN(c2cc(-c3cnn(CCC#N)c3)nc(N)n2)C1 [Example 8-12] |  |  |
| 200 nM | CN[C@@H]1CCN(c2cc(-c3cnn(CC#N)c3)nc(N)n2)C1 [Example 8-13] |  |  |
| 794 nM | CCOC(=O)N1CCCC(n2cc(-c3cc(N4CC[C@@H](NC)C4)nc(N)n3)cn2)C1 (stereo partly shown) [Example 8-14] |  |  |
| 2.51 nM | Nc1nc(-c2cnn(C(F)(F)F)c2)cc(N2CC[C@@H](N)C2)n1 [Example 8-15, dihydrochloride] | 44% | IC50 (hERG): ≥ 100000 nM |
| 50.1 nM | CCn1cc(-c2cc(N3CC[C@@H](N)C3)nc(N)n2)cn1 [Example 8-17, dihydrochloride] | 10% |  |
| 501 nM | Nc1nc(-c2cnn(CC(F)(F)F)c2)cc(N2CC[C@@H](N)C2)n1 [Example 8-18, dihydrochloride] |  |  |
| 12.6 nM | CCc1[nH]ncc1-c1cc(N2CC[C@@H](NC)C2)nc(N)n1 [Example 9-2] | 12% |  |
|  | CN[C@@H]1CCN(c2cc(-c3cn[nH]c3C3CC3)nc(N)n2)C1.O=C(O)C(F)(F)F.O=C(O)C(F)(F)F [Example 9-4] |  | Human H4 CAMP fpKb (human H4 receptor): 7.6; hERG % inhibition at 30 μM (hERG; single concentration 30 μM, QPatch): 17% |
| 39.8 nM | CN[C@@H]1CCN(c2cc(-c3cn[nH]c3C(F)F)nc(N)n2)C1 [Example 9-5] |  |  |
| 501 nM | CN[C@@H]1CCN(c2cc(-c3cn(C)nc3C3CC3)nc(N)n2)C1 [Example 11-3, dihydrochloride] | 34% |  |
| 316 nM | CN[C@@H]1CCN(c2cc(-c3cn(C)nc3C(F)(F)F)nc(N)n2)C1 [Example 11-4, dihydrochloride] | 46% |  |
| 794 nM | CN[C@@H]1CCN(c2cc(-c3cn(C)nc3C#N)nc(N)n2)C1 [Example 11-5] |  |  |
| 251 nM | CN[C@@H]1CCN(c2cc(-c3cnn(C)c3C#N)nc(N)n2)C1 [Example 12-2] | 14% |  |
| 158 nM | CN[C@@H]1CCN(c2cc(-c3cnn4c3CCC4)nc(N)n2)C1 [Example 12-4, dihydrochloride] | 1% |  |
| 3.16 nM | CCc1cc(-c2cc(N3CC[C@@H](NC)C3)nc(N)n2)[nH]n1 [Example 15-1] | 68% |  |
| 31.6 nM | CN[C@H]1CCN(c2cc(-c3[nH]ncc3C)nc(N)n2)C1 [Example 16-1, ditrifluoroacetate] | 32% |  |
| 50.1 nM | CNC1(C)CCN(c2cc(-c3[nH]ncc3C)nc(N)n2)C1 (stereo not shown) [Example 16-2, ditrifluoroacetate] | 9% |  |
| 7.94 nM | CNC1CN(c2cc(-c3[nH]ncc3C)nc(N)n2)C1 [Example 16-3, ditrifluoroacetate] |  |  |
| 398 nM | Cc1cn[nH]c1-c1cc(N2CC(N)C2)nc(N)n1 [Example 16-4, ditrifluoroacetate] |  |  |
| 20 nM | CNC1(C)CN(c2cc(-c3[nH]ncc3C)nc(N)n2)C1 [Example 16-5, ditrifluoroacetate] |  |  |
| 12.6 nM | CN[C@@H]1CCN(c2cc(-c3[nH]ncc3F)nc(N)n2)C1 [Example 16-10, ditrifluoroacetate] | 21% |  |
| 7.94 nM | Nc1nc(-c2[nH]ncc2Cl)cc(N2CC[C@@H](N)C2)n1 [Example 16-11] | 27% |  |
| 5.01 nM | CN[C@@H]1CCN(c2cc(-c3[nH]nc(C)c3C(F)(F)F)nc(N)n2)C1 [Example 17-2] | 39% |  |
| 0.251 nM | CN[C@@H]1CCN(c2cc(-c3[nH]nc(C(F)F)c3C)nc(N)n2)C1 [Example 17-10, ditrifluoroacetate] | 57% |  |
| 1.58 nM | CN[C@@H]1CCN(c2cc(-c3[nH]nc(C(F)(F)F)c3C)nc(N)n2)C1 [Example 17-12] | 60% |  |
| 0.0631 nM | CN[C@@H]1CCN(c2cc(-c3[nH]nc(Cl)c3C)nc(N)n2)C1 [Example 17-14, dihydrochloride] | 44% |  |
| 0.0501 nM | CN[C@@H]1CCN(c2cc(-c3[nH]nc(Cl)c3Cl)nc(N)n2)C1 [Example 17-15] | 75% |  |

| Structure (SMILES) | Kb (human H4 receptor) | inhibition at 30 µM (hERG) | other results |
| --- | --- | --- | --- |
| Cc1cn[nH]c1-c1cc(N2CC3CCNC3C2)nc(N)n1 (stereo not shown) [Example 16-6] | 631 nM |  |  |

Source: patent publication US12234227B2, “Pyrazole derivatives as H4 antagonist compounds” (NXERA PHARMA UK LIMITED, priority 2018, dated 2025)
